Reference: patent US20260256792A1, “TREATMENT OF CHRONIC SPONTANEOUS URTICARIA BY ADMINISTERING (R)-2-[3-[4-AMINO-3-(2-FLUORO-4-PHENOXY-PHENYL)PYRAZOLO[3,4-D]PYRIMIDIN-1-YL]PIPERIDINE-1-CARBONYL]-4-METHYL-4-[4-(OXETAN-3-YL)PIPERAZIN-1-YL]PENT-2-ENENITRILE” (priority 2023, published 2026)

Test system: moderate-to-severe chronic spontaneous urticaria (CSU)
Assay: Phase 2 CSU study: urticaria control test (UCT)
Assay type: in vivo, human
Parameters: key to UCT, Mean / UCT, Median / UCT change from baseline, Mean / UCT change from baseline, Median: UCT total = sum of 4 item scores; low = low disease control
Description: The study comprises a 12 week, randomized, double-blind, placebo-controlled, multi-center, dose-ranging efficacy and safety phase, followed by a 40 week open label extension (OLE) phase (see FIG. 1). The study consists of three phases and an optional OLE phase. […] To this end, the UCT was proposed as a tertiary endpoint in this study. […] The dermatology life quality index (DLQI) was proposed as a tertiary endpoint in this study. […] Low scores indicate high disease activity and low disease control. The UCT total score is calculated by adding all 4 individual item scores. […] The recall period is the previous 4 weeks. Patients were to complete the UCT questionnaire during their site visit.

[1] = 400 mg BID, End of study, omalizumab-naïve population
[2] = 400 mg BID, End of study, prior omalizumab use incl. incomplete responders
[3] = 400 mg BID, Week 4, ITT population
[4] = 400 mg BID, Week 4, omalizumab-naïve population
[5] = 400 mg BID, Week 4, prior omalizumab use incl. incomplete responders
[6] = 400 mg BID, Week 8, ITT population
[7] = 400 mg BID, Week 8, omalizumab-naïve population
[8] = 400 mg BID, Week 8, prior omalizumab use incl. incomplete responders
[9] = 400 mg BID, Week 12, ITT population
[10] = 400 mg BID, Week 12, omalizumab-naïve population
[11] = 400 mg BID, Week 12, prior omalizumab use incl. incomplete responders
[12] = 400 mg QPM, End of study, omalizumab-naïve population
[13] = 400 mg QPM, End of study, prior omalizumab use incl. incomplete responders
[14] = 400 mg QPM, Week 4, ITT population
[15] = 400 mg QPM, Week 4, omalizumab-naïve population
[16] = 400 mg QPM, Week 4, prior omalizumab use incl. incomplete responders

Structure (SMILES): CC(C)(C=C(C#N)C(=O)N1CCC[C@@H](n2nc(-c3ccc(Oc4ccccc4)cc3F)c3c(N)ncnc32)C1)N1CCN(C2COC2)CC1 [rilzabrutinib, (R)-2-[3-[4-amino-3-(2-fluoro-4-phenoxy-phenyl)pyrazolo[3,4-d]pyrimidin-1-yl]piperidine-1-carbonyl]-4-methyl-4-[4-(oxetan-3-yl)piperazin-1-yl]pent-2-enenitrile]
- UCT change from baseline, Mean [1]: 0.00
- UCT change from baseline, Median [1]: −2.00
- UCT percent change from baseline, Mean [1]: −21.27%
- UCT percent change from baseline, Median [1]: −57.14%
- UCT, Median [1]: 3.00
- UCT change from baseline, Median [2]: 5.50
- UCT percent change from baseline, Mean [2]: 4.33%
- UCT percent change from baseline, Median [2]: 4.00%
- UCT, Mean [2]: 2.67
- UCT, Median [2]: 3.00
- UCT % Change difference for rilzabrutinib vs. placebo LS Mean (95% CI) [3]: 96.74 (−24.75, 218.23) %
- UCT % Change from baseline LS Mean (SE) [3]: 236.29 (42.88) %
- UCT Change difference for rilzabrutinib vs. placebo LS Mean (95% CI) [3]: 0.94 (−0.87, 2.75)
- UCT Change from baseline LS Mean (SE) [3]: 4.27 (0.65)
- UCT Post-baseline Mean (SD) [3]: 8.56 (4.95)
- UCT % Change difference for rilzabrutinib vs. placebo LS Mean (95% CI) [4]: 120.19 (−1.20, 241.59) %
- UCT % Change from baseline LS Mean (SE) [4]: 263.00 (44.80) %
- UCT Change difference for rilzabrutinib vs. placebo LS Mean (95% CI) [4]: 1.27 (−0.56, 3.11)
- UCT Change from baseline LS Mean (SE) [4]: 4.51 (0.66)
- UCT Post-baseline Mean (SD) [4]: 8.85 (4.53)
- UCT change from baseline, Mean [4]: 4.21
- UCT change from baseline, Median [4]: 4.00
- UCT percent change from baseline, Mean [4]: 220.19%
- UCT percent change from baseline, Median [4]: 75.00%
- UCT, Mean [4]: 8.85
- UCT, Median [4]: 9.00
- UCT change from baseline, Mean [5]: 4.33
- UCT change from baseline, Median [5]: 4.00
- UCT percent change from baseline, Mean [5]: 151.39%
- UCT percent change from baseline, Median [5]: 137.50%
- UCT, Median [5]: 5.50
- UCT % Change difference for rilzabrutinib vs. placebo LS Mean (95% CI) [6]: 139.58 (18.06, 261.09) %
- UCT % Change from baseline LS Mean (SE) [6]: 304.12 (43.11) %
- UCT Change difference for rilzabrutinib vs. placebo LS Mean (95% CI) [6]: 1.01 (−0.90, 2.92)
- UCT Change from baseline LS Mean (SE) [6]: 5.38 (0.68)
- UCT Post-baseline Mean (SD) [6]: 10.00 (4.71)
- UCT % Change difference for rilzabrutinib vs. placebo LS Mean (95% CI) [7]: 158.55 (28.05, 289.04) %
- UCT % Change from baseline LS Mean (SE) [7]: 328.12 (46.96) %
- UCT Change difference for rilzabrutinib vs. placebo LS Mean (95% CI) [7]: 1.14 (−0.74, 3.02)
- UCT Change from baseline LS Mean (SE) [7]: 5.61 (0.69)
- UCT Post-baseline Mean (SD) [7]: 10.12 (4.20)
- UCT change from baseline, Mean [7]: 5.70
- UCT change from baseline, Median [7]: 5.00
- UCT percent change from baseline, Mean [7]: 290.62%
- UCT percent change from baseline, Median [7]: 114.29%
- UCT change from baseline, Median [8]: 11.00
- UCT percent change from baseline, Mean [8]: 248.33%
- UCT percent change from baseline, Median [8]: 275.00%
- UCT, Mean [8]: 9.20
- UCT, Median [8]: 14.00
- UCT % Change difference for rilzabrutinib vs. placebo LS Mean (95% CI) [9]: 109.34 (−24.34, 243.02) %
- UCT % Change from baseline LS Mean (SE) [9]: 309.12 (47.68) %
- UCT Change difference for rilzabrutinib vs. placebo LS Mean (95% CI) [9]: 0.71 (−1.27, 2.68)
- UCT Change from baseline LS Mean (SE) [9]: 5.44 (0.71)
- UCT Post-baseline Mean (SD) [9]: 9.92 (4.69)
- UCT % Change difference for rilzabrutinib vs. placebo LS Mean (95% CI) [10]: 146.79 (5.56, 288.02) %
- UCT % Change from baseline LS Mean (SE) [10]: 344.03 (53.11) %
- UCT Change difference for rilzabrutinib vs. placebo LS Mean (95% CI) [10]: 0.80 (−1.21, 2.81)
- UCT Change from baseline LS Mean (SE) [10]: 5.52 (0.74)
- UCT Post-baseline Mean (SD) [10]: 10.03 (4.29)
- UCT change from baseline, Mean [10]: 5.65
- UCT change from baseline, Median [10]: 4.00
- UCT percent change from baseline, Mean [10]: 301.53%
- UCT percent change from baseline, Median [10]: 130.95%
- UCT change from baseline, Median [11]: 8.00
- UCT percent change from baseline, Mean [11]: 246.67%
- UCT percent change from baseline, Median [11]: 266.67%
- UCT, Mean [11]: 9.20
- UCT change from baseline, Mean [12]: 8.50
- UCT change from baseline, Median [12]: 8.50
- UCT percent change from baseline, Mean [12]: 283.33%
- UCT percent change from baseline, Median [12]: 283.33%
- UCT change from baseline, Mean [13]: 8.00
- UCT change from baseline, Median [13]: 8.00
- UCT percent change from baseline, Mean [13]: 3.00%
- UCT percent change from baseline, Median [13]: 3.00%
- UCT, Mean [13]: 5.00
- UCT, Median [13]: 5.00
- UCT % Change difference for rilzabrutinib vs. placebo LS Mean (95% CI) [14]: −44.03 (−169.40, 81.34) %
- UCT % Change from baseline LS Mean (SE) [14]: 95.52 (42.85) %
- UCT Change difference for rilzabrutinib vs. placebo LS Mean (95% CI) [14]: −0.89 (−2.79, 1.00)
- UCT Change from baseline LS Mean (SE) [14]: 2.44 (0.68)
- UCT Post-baseline Mean (SD) [14]: 6.40 (3.11)
- UCT % Change difference for rilzabrutinib vs. placebo LS Mean (95% CI) [15]: −48.50 (−174.55, 77.55) %
- UCT % Change from baseline LS Mean (SE) [15]: 94.30 (43.68) %
- UCT Change difference for rilzabrutinib vs. placebo LS Mean (95% CI) [15]: −0.88 (−2.74, 0.99)
- UCT Change from baseline LS Mean (SE) [15]: 2.36 (0.66)
- UCT Post-baseline Mean (SD) [15]: 6.35 (3.14)
- UCT change from baseline, Mean [15]: 2.27
- UCT change from baseline, Median [15]: 2.00
- UCT percent change from baseline, Mean [15]: 102.47%
- UCT percent change from baseline, Median [15]: 45.00%
- UCT, Median [15]: 6.00
- UCT change from baseline, Mean [16]: 3.00
- UCT change from baseline, Median [16]: 3.00
- UCT percent change from baseline, Mean [16]: 60.00%
- UCT percent change from baseline, Median [16]: 60.00%
- UCT, Mean [16]: 8.00
- UCT, Median [16]: 8.00
